pIC50: −log10 of the molar value.
Key:
[1] = biological target: Recombinant KRAS-G12D (SEQ ID NO: 2) (Homo sapiens, UniProt P01116, G12D); experiment: SOS-catalyzed guanine nucleotide exchange (GNE) assay, KRAS-G12D
Method: (§1) Specifically, the SOS-catalyzed nucleotide exchange assay utilizes a preformed time-resolved fluorescence resonance energy transfer (TR-FRET) complex containing a specific biotinylated RAS protein (KRAS-G12C/V/D, HRAS, NRAS; described above) with BODIPY-GDP, and Terbium-streptavidin. Test compounds are preincubated with this complex for 60 minutes.
(§2) To assemble the preformed TR-FRET complexes, each biotinylated RAS protein is diluted to 2 μM in an EDTA Buffer (20 mM HEPES, 50 mM sodium chloride, 10 mM EDTA, and 0.01% Tween) and incubated at room temperature for one hour. This mixture is then further diluted to 90 nM in an Assay Buffer (20 mM HEPES, 150 mM sodium chloride, 10 mM magnesium chloride, and 0.005% Tween) containing 15 nM of Terbium-Streptavidin (Invitrogen, catalog #PV3577) and 900 nM of BODIPY-GDP (Invitrogen, catalog #G22360) and incubated at room temperature for six hours. It should be noted that this preformed TR-FRET complex for each of the RAS proteins was made ahead of time, aliquoted and stored at −80° C. until the day of the experiment.
(§3) Once titrations are made, 10 nL of the diluted compounds is acoustically dispensed into a 384-well assay plate (Corning, catalog #3820) using an Echo 550 (Labcyte). Each well of the assay plate subsequently receives 3 μL of a specific 3× RAS preformed TR-FRET complex and 3 μL of Assay Buffer and is incubated at room temperature for 60 minutes (preincubation time). […] The final reaction in each well of 9 μL consists of 3 mM GTP, and the specific RAS and SOS proteins in the following concentrations: KRAS-G12C/SOS=3 nM/40 nM, KRAS-G12D/SOS=1 nM/40 nM, KRAS-G12V/SOS=1.25 nM/160 nM, HRAS/SOS=1.25 nM/40 nM, and NRAS/SOS=1.25 nM/40 nM.
(§4) The TR-FRET signal is measured on an Envision (PerkinElmer) plate reader: Excitation filter=340 nm; emission 1=495 nm; emission 2=520 nm; dichroic mirror=D400/D505; delay time=100 ms. The signal of each well is determined as the ratio of the emission at 520 nm to that at 495 nm. […] The apparent effect as a function of compound concentration is fit to a four-parameter logistic equation to calculate IC50 values using Spotfire software.

[2] = tested on: NCI-H358 cells containing homozygous KRAS-G12C activating mutation (p-ERK); conditions: Homo sapiens, NCI-H358, 2 h, read-out: G12C H358 IC50 (nM)
Method: Procedure for Cellular Phospho-ERK Assay, G12C
NCI-H358 cells (ATCC® CRL-5807™), containing homozygous KRAS-G12C activating mutation, were cultured in T150 flask in growth medium (RPMI medium 1640-GlutaMAX™—I (ThermoFisher Scientific 61870) containing 10% fetal bovine serum (ThermoFisher Scientific 10091148)). The cells were harvested in growth medium after TrypLE (ThermoFisher scientific 12604021) digestion and were seeded in a 384-well collagen coated cell culture plate (Corning 356702) at a density of 15,000 cells/well, and incubated at 37° C., 5% CO2 overnight. […] RPMI medium 1640-GlutaMAX™—I was added to the intermediate plate and the contents of the intermediate plate were then transferred to the 384-well collagen coated cell culture plate, which was incubated at 37° C., 5% CO2 for 2 hours. After removal of medium from the collagen coated cell culture plate, cells were lysed in lysis buffer from Alpha SureFire® Ultra™ Multiplex p-ERK and total ERK assay kit (PerkinElmer MPSU-PTERK) containing Halt™ Protease and Phosphatase inhibitor cocktail (ThermoFisher Scientific 78446) at room temperature with constant shaking at 300 rpm for 30 minutes. The cell lysates were then transferred to an OptiPlate-384 plate (PerkinElmer 6005620), and the phosphorylation of ERK (p-ERK) and total ERK levels were detected by Alpha SureFire® Ultra™ Multiplex p-ERK kit and total ERK assay kit (PerkinElmer MPSU-PTERK) following the manufacturer's protocol. Assay plates were read on an EnVision Multimode Plate Reader (PerkinElmer), and the ratio of p-ERK vs. total ERK in each well was used as the final readout. Dose response curves were analyzed using a 4-parameter logistic model to calculate IC50 values using Spotfire software.

[3] = tested on: AsPC-1 cells containing homozygous KRAS-G12D activating mutation (p-ERK); conditions: Homo sapiens, ASPC1, 2 h, read-out: KRAS G12D ASPC-1 IC50 (nM)
Method: Procedure for Cellular Phospho-ERK Assay, G12D
AsPC-1 cells (ATCC® CRL-1682™), containing homozygous KRAS-G12D activating mutation, were cultured in T150 flask in growth medium (RPMI medium 1640-GlutaMAX™—I (ThermoFisher Scientific 61870) containing 10% fetal bovine serum (ThermoFisher Scientific 10091148)). The cells were harvested in growth medium after TrypLE (ThermoFisher scientific 12604021) digestion and were seeded in a 384-well collagen coated cell culture plate (Corning 356702) at a density of 15,000 cells/well, and incubated at 37° C., 5% CO2 overnight. […] RPMI medium 1640-GlutaMAX™—I was added to the intermediate plate and the contents of the intermediate plate were then transferred to the 384-well collagen coated cell culture plate, which was incubated at 37° C., 5% CO2 for 2 hours. After removal of medium from the collagen coated cell culture plate, cells were lysed in lysis buffer from Alpha SureFire® Ultra™ Multiplex p-ERK and total ERK assay kit (PerkinElmer MPSU-PTERK) containing Halt™ Protease and Phosphatase inhibitor cocktail (ThermoFisher Scientific 78446) at room temperature with constant shaking at 300 rpm for 30 minutes. The cell lysates were then transferred to an OptiPlate-384 plate (PerkinElmer 6005620), and the phosphorylation of ERK (p-ERK) and total ERK levels were detected by Alpha SureFire® Ultra™ Multiplex p-ERK kit and total ERK assay kit (PerkinElmer MPSU-PTERK) following the manufacturer's protocol. Assay plates were read on a EnVision Multimode Plate Reader (PerkinElmer), and the ratio of p-ERK vs. total ERK in each well was used as the final readout. Dose response curves were analyzed using a 4-parameter logistic model to calculate IC50 values using Spotfire software.

[4] = biological target: Recombinant KRAS-G12V (SEQ ID NO: 3) (Homo sapiens, UniProt P01116, G12V); experiment: SOS-catalyzed guanine nucleotide exchange (GNE) assay, KRAS-G12V
Method: as §1, §2, §3, §4

G13D = G13D (Homo sapiens, UniProt P01116, G13D); experiment: Guanine nucleotide exchange (GNE) assay, G13D; assay type: biochemical
Chain of G13D (P01116 1-188 isoform P01116-2 G13D): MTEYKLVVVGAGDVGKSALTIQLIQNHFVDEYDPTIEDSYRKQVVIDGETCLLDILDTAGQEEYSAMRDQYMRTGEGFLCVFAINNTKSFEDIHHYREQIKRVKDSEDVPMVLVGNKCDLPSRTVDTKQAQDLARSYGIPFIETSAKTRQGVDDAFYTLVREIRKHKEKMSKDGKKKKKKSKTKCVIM
Method: as §4

Chain of Recombinant KRAS-G12D (SEQ ID NO: 2) (P01116 with tags, fused parts or gaps isoform P01116-2 G12D): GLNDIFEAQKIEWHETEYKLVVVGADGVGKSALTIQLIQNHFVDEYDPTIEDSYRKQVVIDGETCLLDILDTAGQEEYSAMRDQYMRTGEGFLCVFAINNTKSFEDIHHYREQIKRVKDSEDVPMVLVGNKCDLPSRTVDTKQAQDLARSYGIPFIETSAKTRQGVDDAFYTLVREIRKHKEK
Chain of Recombinant KRAS-G12V (SEQ ID NO: 3) (P01116 with tags, fused parts or gaps isoform P01116-2 G12V): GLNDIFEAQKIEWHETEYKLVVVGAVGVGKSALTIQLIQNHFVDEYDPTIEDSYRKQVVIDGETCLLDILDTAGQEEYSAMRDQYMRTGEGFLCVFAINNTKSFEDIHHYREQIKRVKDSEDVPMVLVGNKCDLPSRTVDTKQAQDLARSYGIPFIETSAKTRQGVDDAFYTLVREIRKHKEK

| SMILES | pIC50 [1] | IC50 [2] | IC50 [3] | pIC50 [4] | pIC50 (G13D) |
| --- | --- | --- | --- | --- | --- |
| Cc1cc(N)nc(-c2c(Cl)cc3c(N4CCCC(C)(O)C4)nc(OC[C@@]45CCCN4C[C@H](F)C5)nc3c2F)c1C(F)(F)F (single isomer, unassigned) [Ex-26] | 5.70 | 7730 nM | 3920 nM | 5.81 | 6.15 |
| CC1(O)CCCCN(c2nc(OC[C@@]34CCCN3C[C@H](F)C4)nc3c(F)c(-c4cc(O)cc5cccc(Cl)c45)c(F)cc23)C1 (single isomer, unassigned) [Ex-36] | 6.40 | 3580 nM | 1860 nM | 6.52 | 6.85 |
| Oc1cc(-c2c(F)cc3c(N4CCCC(O)(C(F)(F)F)C4)nc(OC[C@@]45CCCN4C[C@H](F)C5)nc3c2F)c2c(Cl)cccc2c1 (single isomer, unassigned) [Ex-38] | 6.07 | 2170 nM | 6860 nM | 6.22 | 6.11 |
| CN(C)CC1(COc2nc(N3CCCC(C)(O)C3)c3cc(F)c(-c4cc(O)ccc4OC(F)(F)F)c(F)c3n2)CC1 (centres unmarked) [Ex-9, 1-(2-((1-((dimethylamino)methyl)cyclopropyl)methoxy)-6,8-difluoro-7-(5-hydroxy-2-(trifluoromethoxy)phenyl)quinazolin-4-yl)-3-methylpiperidin-3-ol] | 6.50 | 4210 nM | 1880 nM | 6.42 | 6.66 |
| C#Cc1cccc2cc(O)cc(-c3cnc4c(N5CCC[C@@](C)(O)C5)nc(OCC5(CN(C)C)CC5)nc4c3)c12 [Ex-19, (R)-1-(2-((1-((dimethylamino)methyl)cyclopropyl)methoxy)-7-(8-ethynyl-3-hydroxynaphthalen-1-yl)pyrido[3,2-d]pyrimidine-4-yl)-3-methylpiperidin-3-ol] | 7.04 |  | 3340 nM | 7.33 | 6.89 |
| CN(C)CC1(COc2nc(N3CCC[C@@](C)(O)C3)c3cnc(-c4cc(O)cc5cccc(Cl)c45)c(F)c3n2)CC1 [Ex-20, (R)-1-(7-(8-chloro-3-hydroxynaphthalen-1-yl)-2-((1-((dimethylamino)methyl)cyclopropyl)methoxy)-8-fluoropyrido[4,3-d]pyrimidin-4-yl)-3-methylpiperidin-3-ol] | 8.40 |  | 1180 nM | 8.22 | 8.22 |
| C#Cc1cccc2cc(O)cc(-c3ncc4c(N5CCC[C@@](C)(O)C5)nc(OCC5(CN(C)C)CC5)nc4c3F)c12 [Ex-21, (R)-1-(2-((1-((dimethylamino)methyl)cyclopropyl)methoxy)-7-(8-ethynyl-3-hydroxynaphthalen-1-yl)-8-fluoropyrido[4,3-d]pyrimidin-4-yl)-3-methylpiperidin-3-ol] | 9.00 |  | 329 nM | 9.00 | 9.00 |
| C#Cc1cccc2cc(O)cc(-c3ncc4c(N5CCC[C@@](C)(O)C5)nc(OCC56CCCN5CCC6)nc4c3F)c12 [Ex-22, (R)-1-(7-(8-ethyny1-3-hydroxynaphthalen-1-yl)-8-fluoro-2-((tetrahydro-1H-pyrrolizin-7a(5H)-yl)methoxy)pyrido[4,3-d]pyrimidin-4-yl)-3-methylpiperidin-3-ol] | 9.00 | 305 nM | 1160 nM | 8.70 | 9.00 |
| C#Cc1cccc2cc(O)cc(-c3ncc4c(N5CCC[C@@](C)(O)C5)nc(OC[C@@]56CCCN5C[C@H](F)C6)nc4c3F)c12 [Ex-23, (R)-1-(7-(8-ethynyl-3-hydroxynaphthalen-1-yl)-8-fluoro-2-(((2R,7aS)-2-fluorotetrahydro-1H-pyrrolizin-7a(5H)-yl)methoxy)pyrido[4,3-d]pyrimidin-4-yl)-3-methylpiperidin-3-ol] | 9.00 | 14 nM | 65 nM | 9.00 | 8.70 |
| C#Cc1cccc2cc(O)cc(-c3ncc4c(N5CCC[C@@](C)(O)C5)nc(OC[C@]5(CN(C)C)CC5(F)F)nc4c3F)c12 [Ex-24, (R)-1-(2-(((R)-1-((dimethylamino)meth-yl)-2,2-difluorocyclopropyl)methoxy)-7-(8-ethynyl-3-hydroxynaphthalen-1-yl)-8-fluoropyrido[4,3-d]pyrimidin-4-yl)-3-methylpiperidin-3-ol] | 9.00 | 2 nM | 20 nM | 9.00 | 9.00 |
| CC1(O)CCCN(c2nc(OC[C@@]34CCCN3C[C@H](F)C4)nc3c(F)c(-c4cc(O)cc5cccc(Cl)c45)c(F)cc23)C1 (stereo partly drawn) [Ex-29, 1-(7-(8-chloro-3-hydroxynaphthalen-1-yl)-6,8-difluoro-2-(((2R,7aS)-2-fluorotetrahydro-1H-pyrrolizin-7a(5H)-yl)methoxy)quinazolin-4-yl)-3-methylpiperidin-3-ol] | 7.82 | > 30000 nM | 900 nM | 7.77 | 7.89 |
| CC1(O)CN(c2nc(OC[C@@]34CCCN3C[C@H](F)C4)nc3c(F)c(-c4cc(O)cc5cccc(Cl)c45)c(F)cc23)CCC1(F)F (stereo partly drawn) [Ex-31, 1-(7-(8-chloro-3-hydroxynaphthalen-1-yl)-6,8-difluoro-2-(((2R,7aS)-2-fluorotetrahydro-1H-pyrrolizin-7a(5H)-yl)methoxy)quinazolin-4-yl)-4,4-difluoro-3-methylpiperidin-3-ol] | 6.01 | 468 nM | 1730 nM | 6.45 | 6.72 |
| CC1(O)CN(c2nc(OC[C@@]34CCCN3C[C@H](F)C4)nc3c(F)c(-c4cc(O)cc5cccc(Cl)c45)c(F)cc23)CCC1F (stereo partly drawn) [Ex-32, 1-(7-(8-chloro-3-hydroxynaphthalen-1-yl)-6,8-difluoro-2-(((2R,7aS)-2-fluorotetrahydro-1H-pyrrolizin-7a(5H)-yl)methoxy)quinazolin-4-yl)-4-fluoro-3-methylpiperidin-3-ol] | 7.23 | 118 nM | 261 nM | 7.40 | 7.80 |
| Oc1cc(-c2c(F)cc3c(N4CCCCC(O)C4)nc(OC[C@@]45CCCN4C[C@H](F)C5)nc3c2F)c2c(Cl)cccc2c1 (stereo partly drawn) [Ex-34, 1-(7-(8-chloro-3-hydroxynaphthalen-1-yl)-6,8-difluoro-2-(((2R,7aS)-2-fluorotetrahydro-1H-pyrrolizin-7a(5H)-yl)methoxy)quinazolin-4-yl)azepan-3-ol] | 6.55 | 3620 nM | 6300 nM | 6.23 | 6.36 |
| Cc1cc2[nH]ncc2c(-c2c(F)cc3c(N4CCC[C@H](O)CC4)nc(OC[C@@]45CCCN4C[C@H](F)C5)nc3c2F)c1C(F)(F)F [Ex-40, (4S)-1-(6,8-difluoro-2-(((2R,7aS)-2-fluorotetrahydro-1H-pyrrolizin-7a(5H)-yl)methoxy)-7-(6-methyl-5-(trifluoromethyl)-1H-indazol-4-yl)quinazolin-4-yl)azepan-4-ol] | 6.76 | 981 nM | 1330 nM | 6.33 | 6.03 |
| C#Cc1cccc2cc(O)cc(-c3c(F)cc4c(N5CCCC(O)(C(F)F)C5)nc(OC[C@@]56CCCN5C[C@H](F)C6)nc4c3F)c12 (stereo partly drawn) [Ex-43, 3-(difluoromethyl)-1-(7-(8-ethynyl-3-hydroxynaphthalen-1-yl)-6,8-difluoro-2-(((2R,7aS)-2-fluorotetrahydro-1H-pyrrolizin-7a(5H)-yl)methoxy)quinazolin-4-yl)piperidin-3-ol] | 7.89 | 58 nM | 215 nM | 8.00 | 8.10 |
| C#Cc1c(F)ccc2cccc(-c3c(F)cc4c(N5CCC[C@@](C)(O)C5)nc(OC[C@@]56CCCN5[C@H](COC(=O)N(C)C)CC6)nc4c3F)c12 [Ex-45, ((3S,7aS)-7a-(((7-(8-ethynyl-7-fluoronaphthalen-1-yl)-6,8-difluoro-4-((R)-3-hydroxy-3-methylpiperidin-1-yl)quinazolin-2-yl)oxy)methyl)hexahydro-1H-pyrrolizin-3-yl)methyl dimethylcarbamate] | 7.64 | 331 nM | 379 nM | 7.92 | 7.85 |
| C#Cc1c(F)ccc2cccc(-c3c(F)cc4c(N5CCC[C@@](C)(O)C5)nc(OC[C@@]56CCCN5C[C@H](F)C6)nc4c3F)c12 [Ex-47, (3R)-1-(7-(8-ethynyl-7-fluoronaphthalen-1-yl)-6,8-difluoro-2-(((2R,7aS)-2-fluorotetrahydro-1H-pyrrolizin-7a(5H)-yl)methoxy)quinazolin-4-yl)-3-methylpiperidin-3-ol] | 6.62 | 979 nM | 2070 nM | 6.41 | 6.76 |
| C#Cc1cccc2cc(O)cc(-c3c(F)cc4c(N5CCCC(O)(CO)C5)nc(OC[C@@]56CCCN5C[C@H](F)C6)nc4c3F)c12 (stereo partly drawn) [Ex-48, 1-(7-(8-ethynyl-3-hy-droxynaphthalen-1-yl)-6,8-difluoro-2-(((2R,7aS)-2-fluorotetrahydro-1H-pyrrolizin-7a(5H)-yl)methoxy)quinazolin-4-yl)-3-(hydroxymethyl)piperidin-3-ol] | 7.89 | 180 nM | 376 nM | 8.30 | 8.15 |

— patent US20260200925A1, “SMALL MOLECULE INHIBITORS OF KRAS MUTATED PROTEINS” (MERCK SHARP & DOHME LLC, priority 2021, published 2026)
